Experimental data from the CheMixHub drug solubility set.

Experiment: xn = mol fraction of the nth substance listed, in the solute-free solvent

Nc1ccc(Oc2ccc(N)cc2)cc1 + CN(C)C=O + CCO
solubility (g/100 g solution)
Conditions | 293.15 K | 298.15 K | 303.15 K | 308.15 K | 313.15 K | 318.15 K | 323.15 K | 328.15 K | 333.15 K
x2 = 0.06545 | 0.79 | 0.873 | 1.16 | 1.2 | 1.53 | 1.69 | 2.06 | 2.54 | 2.99
x2 = 0.1361 | 1.59 | 1.71 | 2.14 | 2.18 | 2.57 | 2.99 | 3.53 | 4.13 | 4.74
x2 = 0.2127 | 2.76 | 2.98 | 3.46 | 3.65 | 4.23 | 4.88 | 5.56 | 6.41 | 7.1
x2 = 0.2959 | 4.51 | 4.86 | 5.41 | 5.88 | 6.29 | 7.33 | 8.28 | 9.19 | 10.3
x2 = 0.3866 | 6.9 | 7.38 | 7.95 | 8.83 | 9.66 | 10.6 | 11.6 | 12.8 | 14.1
x2 = 0.486 | 9.91 | 10.6 | 11.3 | 12.2 | 13.3 | 14.3 | 15.5 | 16.9 | 18.1
x2 = 0.5952 | 13.6 | 14.3 | 15.1 | 16.1 | 17.2 | 18.5 | 19.6 | 21 | 22.4
x2 = 0.716 | 17.6 | 18.4 | 19.2 | 20.3 | 21.5 | 22.6 | 23.9 | 25.2 | 26.7
x2 = 0.8501 | 21.8 | 22.5 | 23.2 | 24 | 25.6 | 26.7 | 27.9 | 29.2 | 30.6

Nc1cccc(S(=O)(=O)c2cccc(N)c2)c1 + CN(C)C=O + O
solubility (g/100 g solution)
Conditions | 283.15 K | 288.15 K | 293.15 K | 298.15 K | 303.15 K | 308.15 K | 313.15 K | 318.15 K | 323.15 K | 328.15 K
x2 = 0.02666 | 0.202 | 0.267 | 0.355 | 0.463 | 0.615 | 0.787 | 1.01 | 1.26 | 1.53 | 1.97
x2 = 0.05806 | 0.784 | 1.03 | 1.32 | 1.65 | 2.08 | 2.63 | 3.23 | 3.98 | 4.79 | 5.92
x2 = 0.09556 | 2.09 | 2.63 | 3.21 | 3.95 | 4.75 | 5.77 | 6.85 | 8.08 | 9.45 | 11
x2 = 0.1412 | 4.93 | 5.86 | 6.87 | 8.09 | 9.39 | 10.8 | 12.4 | 14.1 | 15.9 | 17.7
x2 = 0.1978 | 7.85 | 9.25 | 10.8 | 12.5 | 14.2 | 16.2 | 18.4 | 20.5 | 22.9 | 25.4
x2 = 0.27 | 11.4 | 13 | 15 | 16.9 | 19.1 | 21.5 | 23.9 | 26.7 | 29.3 | 32.1
x2 = 0.3652 | 14.4 | 16.6 | 18.8 | 21.2 | 23.6 | 26.3 | 29.1 | 31.9 | 34.6 | 37.4
x2 = 0.4965 | 17.8 | 20.1 | 22.5 | 25.2 | 27.8 | 30.7 | 33.8 | 36.6 | 39.7 | 42.6
x2 = 0.6893 | 20.8 | 23.1 | 25.7 | 28.2 | 31.1 | 33.9 | 36.5 | 39.4 | 42.3 | 45.4

CN1CCN(C2=Nc3cc(Cl)ccc3Nc3ccccc32)CC1 + CC(C)O + O
solubility (g/100 g solution)
Conditions | x2 = 0.03225 | x2 = 0.06974 | x2 = 0.1139 | x2 = 0.1666 | x2 = 0.2307 | x2 = 0.3103 | x2 = 0.4117 | x2 = 0.5454 | x2 = 0.7297
278.15 K | 0.00624 | 0.0228 | 0.0624 | 0.135 | 0.239 | 0.393 | 0.559 | 0.783 | 0.957
283.15 K | 0.00829 | 0.029 | 0.0775 | 0.164 | 0.288 | 0.463 | 0.667 | 0.914 | 1.13
288.15 K | 0.0108 | 0.0371 | 0.096 | 0.199 | 0.35 | 0.567 | 0.781 | 1.08 | 1.32
293.15 K | 0.014 | 0.0473 | 0.117 | 0.237 | 0.417 | 0.659 | 0.933 | 1.27 | 1.54
298.15 K | 0.0182 | 0.06 | 0.144 | 0.283 | 0.493 | 0.781 | 1.09 | 1.47 | 1.78
303.15 K | 0.0233 | 0.0733 | 0.171 | 0.336 | 0.578 | 0.917 | 1.25 | 1.72 | 2.07
308.15 K | 0.0298 | 0.0919 | 0.207 | 0.399 | 0.675 | 1.06 | 1.47 | 1.96 | 2.37
313.15 K | 0.0368 | 0.113 | 0.249 | 0.472 | 0.803 | 1.22 | 1.69 | 2.24 | 2.68
318.15 K | 0.0461 | 0.137 | 0.295 | 0.552 | 0.923 | 1.42 | 1.95 | 2.58 | 3.06
323.15 K | 0.0576 | 0.166 | 0.344 | 0.642 | 1.07 | 1.63 | 2.21 | 2.92 | 3.45
328.15 K | 0.071 | 0.203 | 0.407 | 0.739 | 1.23 | 1.85 | 2.53 | 3.33 | 3.91

CN1CCN(C2=Nc3cc(Cl)ccc3Nc3ccccc32)CC1 + ClC(Cl)Cl + Cc1ccccc1
solubility (g/100 g solution)
Conditions | x2 = 0.07983 | x2 = 0.1632 | x2 = 0.2513 | x2 = 0.3428 | x2 = 0.4382 | x2 = 0.5396 | x2 = 0.6452 | x2 = 0.7576 | x2 = 0.8755
293.15 K | 2.67 | 2.81 | 3.33 | 3.96 | 4.41 | 5.51 | 6.99 | 8.93 | 11.8
298.15 K | 3.12 | 3.3 | 3.67 | 4.31 | 4.65 | 6.29 | 7.75 | 10.1 | 12.8
303.15 K | 3.39 | 3.85 | 4.08 | 4.65 | 5.25 | 6.98 | 8.51 | 10.9 | 13.3
308.15 K | 3.94 | 4.46 | 4.87 | 5.59 | 6.7 | 7.99 | 9.81 | 12.6 | 14.4
313.15 K | 4.95 | 5.37 | 6 | 6.97 | 7.69 | 9.1 | 11.1 | 13.9 | 16.5
318.15 K | 5.94 | 6.56 | 6.71 | 8.12 | 9.11 | 10.3 | 12.3 | 16.2 | 19.1
323.15 K | 6.09 | 7.9 | 9.16 | 10 | 10.9 | 12.6 | 15.7 | 19.2 | 22.4

CC(C)=CCCC(C)C1CCC2(C)C3=C(CCC12C)C1(C)CCC(O)C(C)(C)C1CC3 (stereo not drawn) + CC(C)O + O
solubility (g/100 g solution)
Conditions | 278.15 K | 288.15 K | 298.15 K | 308.15 K | 318.15 K
x2 = 0.01234 | 2.03e-05 | 2.81e-05 | 3.2e-05 | 3.94e-05 | 5.13e-05
x2 = 0.09088 | 0.000156 | 0.000176 | 0.000221 | 0.00024 | 0.000254
x2 = 0.2604 | 0.0158 | 0.0209 | 0.0306 | 0.0368 | 0.0456
x2 = 0.6874 | 0.147 | 0.272 | 0.373 | 0.472 | 0.64

Cl.N=C(N)N + CO + CCCO
solubility (g/100 g solution)
Conditions | 278.15 K | 283.15 K | 288.15 K | 293.15 K | 298.15 K | 303.15 K | 308.15 K | 313.15 K | 318.15 K | 323.15 K
x2 = 0.1726 | 9.26 | 10.3 | 11.5 | 12.6 | 13.3 | 14.4 | 15.6 | 17 | 18.2 | 19.9
x2 = 0.4458 | 15.1 | 16.1 | 17.4 | 18.8 | 20.6 | 22 | 23.4 | 25.3 | 26.3 | 28.2
x2 = 0.6523 | 22.2 | 23.4 | 24.9 | 26.3 | 27.8 | 29.2 | 30.7 | 32.4 | 34.1 | 35.6
x2 = 0.8138 | 28.3 | 29.7 | 31.4 | 33.1 | 34.5 | 36.2 | 37.6 | 39.5 | 40.9 | 42.3
x2 = 0.9441 | 33.4 | 35.1 | 36.8 | 38.3 | 40.2 | 42.1 | 43.6 | 45.5 | 47.1 | 48.8

COc1cc2c(cc1OC)-c1cc3ccc(OC)c(OC)c3c[n+]1CC2.[Cl-] + OCCO + O
solubility (g/100 g solution)
Conditions | 283.15 K | 288.15 K | 293.15 K | 298.15 K | 303.15 K | 308.15 K | 313.15 K | 318.15 K | 323.15 K | 328.15 K
x2 = 0.03125 | 1.2 | 1.46 | 1.83 | 2.28 | 2.8 | 3.39 | 4.08 | 4.86 | 5.75 | 6.75
x2 = 0.06767 | 1.25 | 1.51 | 1.89 | 2.35 | 2.88 | 3.48 | 4.19 | 4.98 | 5.89 | 6.91
x2 = 0.1107 | 1.33 | 1.6 | 1.99 | 2.47 | 3.02 | 3.65 | 4.37 | 5.2 | 6.13 | 7.19
x2 = 0.1622 | 1.41 | 1.69 | 2.09 | 2.58 | 3.15 | 3.8 | 4.55 | 5.4 | 6.36 | 7.45
x2 = 0.225 | 1.47 | 1.78 | 2.23 | 2.74 | 3.31 | 3.98 | 4.71 | 5.6 | 6.54 | 7.6
x2 = 0.3034 | 1.49 | 1.82 | 2.23 | 2.74 | 3.27 | 3.96 | 4.69 | 5.57 | 6.5 | 7.55
x2 = 0.4038 | 1.45 | 1.79 | 2.16 | 2.64 | 3.18 | 3.77 | 4.46 | 5.28 | 6.2 | 7.26
x2 = 0.5373 | 1.36 | 1.65 | 2.01 | 2.43 | 2.92 | 3.5 | 4.22 | 4.93 | 5.81 | 6.75
x2 = 0.7232 | 1.23 | 1.46 | 1.79 | 2.17 | 2.63 | 3.15 | 3.76 | 4.44 | 5.21 | 6.07
